The values that follow are results of earlier work, collected in patent US11771704B1, “Methods of using rho kinase inhibitors to treat alzheimer's disease” (priority 2020, dated 2023).

For data set [1] the following is noted: in vivo, 1-hydroxy metabolite; cited from earlier work.
Data set [2] relates to triple transgenic mouse model (APP Swedish, MAPT P301L, and PSEN1 M146V). To be noted: 10 mg/kg/day intraperitoneally (57 mg HED); cited from earlier work.
Data set [3] deals with APP/PS1 transgenic mice. To be noted: 5 and 10 mg/kg/day intraperitoneally (70, 140 mg HED); cited from earlier work.
Data set [4] concerns streptozotocin rats. To be noted: 5 and 10 mg/kg/day intraperitoneally (226 mg HED); cited from earlier work.
The subject of data set [5] is triple transgenic mice. To be noted: 10 or 12 months of age, in water at 30 mg/kg and 100 mg/kg; cited from earlier work.
Data set [6] concerns the target p38 mitogen-activated protein kinase (Homo sapiens, UniProt Q16539). To be noted: cited from earlier work.
Data set [7] relates to animal model. The note with it: in vivo; cited from earlier work.

Sequence of p38 mitogen-activated protein kinase (Q16539 whole entry): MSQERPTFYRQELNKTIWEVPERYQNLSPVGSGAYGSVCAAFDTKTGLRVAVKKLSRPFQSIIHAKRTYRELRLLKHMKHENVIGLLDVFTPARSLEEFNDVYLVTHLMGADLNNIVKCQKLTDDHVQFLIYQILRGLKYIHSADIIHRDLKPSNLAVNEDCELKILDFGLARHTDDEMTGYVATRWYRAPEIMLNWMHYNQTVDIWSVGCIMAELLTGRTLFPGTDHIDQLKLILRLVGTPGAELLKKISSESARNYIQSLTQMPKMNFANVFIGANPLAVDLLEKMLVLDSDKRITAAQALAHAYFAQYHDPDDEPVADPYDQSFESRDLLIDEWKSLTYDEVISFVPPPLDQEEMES

As to `O=S(=O)(c1cccc2c(O)nccc12)N1CCCNCC1` [M3, hydroxyfasudil], in data set [1], the half-life entry is listed as “about 8 hours”.

For the compound `Cl.O=S(=O)(c1cccc2cnccc12)N1CCCNCC1` [fasudil, Hexahydro-1-(5-Isoquinolinesulfonyl)-1H-1,4-Diazepine Monohydrochloride Hemihydrate], the “β-amyloid plaques in vivo” value in data set [2] is given as “reduce”. In addition, the “latency distance and quadrant time in the Morris water maze” value in data set [3] and in data set [4] was “improved” each time. Also, the spatial memory entry in data set [5] was “did not observe improvements”.

As to `O=c1ncn2nc(Sc3ccc(F)cc3F)ccc2c1-c1c(Cl)cccc1Cl` [Neflamapimod], in data set [6] (Phase 2), the “primary endpoint of improving episodic memory” value was “failed” and the “tau in the cerebrospinal fluid” value is “reducing”. In addition, in data set [6] (humans), the Aβ deposition entry is given as “no effect”. Besides, the “efficacy in an animal model” value in data set [7] was “showed efficacy”.
